Source: patent US20250177399A1, “COMBINATION THERAPIES” (MIRATI THERAPEUTICS, INC., priority 2021, published 2025)
Like-named read-outs stand apart in the source and are kept apart here.

Legend:
SW1573 tumors = assay: SW1573 tumor model, Compound 478 and RO5126766 alone and in combination; format: in vivo, nude/nude mice; details: Compound 478 100 mg/kg p.o daily, RO5126766 0.3 mg/kg p.o Q2D; for tumor growth inhibition: SW1573 tumors, at Day 20
Experimental: (§1) Immunocompromised nude/nude mice were inoculated in the right hind flank with cells or patient derived tumor samples harboring a KRas G12C mutation. When tumor volumes reach between 200-400 mm^3 in size, the mice were divided into four groups of 5-12 mice each. The first group was administered vehicle only. […] The fourth group was orally administered the single agent dose of the KRas G12C inhibitor in combination with the single agent dose of the MEK inhibitor at the matched schedule. […] Tumor volumes were measured using a caliper every two-three days and tumor volumes are calculated by the formula: 0.5×(Length×Width)2.

H2122 tumors [1] = assay: H2122 tumor model, Compound 478 and RO5126766 alone and in combination; format: in vivo, nude/nude mice; details: Compound 478 100 mg/kg p.o daily, RO5126766 0.3 mg/kg p.o Q2D; for tumor growth inhibition: H2122 tumors, at Day 21
Experimental: as §1

LU99 tumors = assay: LU99 tumor model, Compound 478 and RO5126766 alone and in combination; format: in vivo, nude/nude mice; details: for Average Tumor Volumes of LU99 Tumor Bearing Mice: p.o. daily, Compound 478 30 mg/kg
Experimental: as §1

H2122 tumors [2] = details: for Average Tumor Volumes of H2122 Tumor Bearing Mice: Compound 478 100 mg/kg, trametinib 1 mg/kg
Experimental: Immunocompromised nude/nude mice were inoculated in the right hind flank with cells or patient derived tumor samples harboring a KRas G12C mutation. When tumor volumes reach between 200-400 mm^3 in size, the mice were divided into four groups of 5-12 mice each. The first group was administered vehicle only. […] The fourth group was orally administered the single agent dose of the KRas G12C inhibitor in combination with the single agent dose of the MEK inhibitor at the matched schedule. […] Tumor volumes were measured using a caliper every two-three days and tumor volumes are calculated by the formula: […].
For example, twenty nude/nude mice were inoculated in the right hind limb with 5×10^6 H2122 cells.

[3] = Study Day 1, RO5126766 0.3 mg/kg
[4] = Study Day 4, RO5126766 0.3 mg/kg
[5] = Study Day 9, RO5126766 0.3 mg/kg
[6] = Study Day 12, RO5126766 0.3 mg/kg
[7] = Study Day 15, RO5126766 0.3 mg/kg
[8] = Study Day 18, RO5126766 0.3 mg/kg

Compound	tumor growth inhibition (SW1573 tumors) [%]	Average Tumor Volumes of SW1573 Tumor Bearing Mice (SW1573 tumors; Study Day 0) [mm^3]	Average Tumor Volumes of SW1573 Tumor Bearing Mice (SW1573 tumors; Study Day 3) [mm^3]	Average Tumor Volumes of SW1573 Tumor Bearing Mice (SW1573 tumors; Study Day 7) [mm^3]	Average Tumor Volumes of SW1573 Tumor Bearing Mice (SW1573 tumors; Study Day 10) [mm^3]	Average Tumor Volumes of SW1573 Tumor Bearing Mice (SW1573 tumors; Study Day 13) [mm^3]	Average Tumor Volumes of SW1573 Tumor Bearing Mice (SW1573 tumors; Study Day 17) [mm^3]	Average Tumor Volumes of SW1573 Tumor Bearing Mice (SW1573 tumors; Study Day 20) [mm^3]	tumor growth inhibition (H2122 tumors [1]) [%]	Average Tumor Volumes of H2122 Tumor Bearing Mice (H2122 tumors [1]; Study Day 0) [mm^3]	Average Tumor Volumes of H2122 Tumor Bearing Mice (H2122 tumors [1]; Study Day 2) [mm^3]	Average Tumor Volumes of H2122 Tumor Bearing Mice (H2122 tumors [1]; Study Day 7) [mm^3]	Average Tumor Volumes of H2122 Tumor Bearing Mice (H2122 tumors [1]; Study Day 9) [mm^3]	Average Tumor Volumes of H2122 Tumor Bearing Mice (H2122 tumors [1]; Study Day 14) [mm^3]	Average Tumor Volumes of H2122 Tumor Bearing Mice (H2122 tumors [1]; Study Day 17) [mm^3]	Average Tumor Volumes of LU99 Tumor Bearing Mice (LU99 tumors; [3]) [mm^3]	Average Tumor Volumes of LU99 Tumor Bearing Mice (LU99 tumors; [4]) [mm^3]	Average Tumor Volumes of LU99 Tumor Bearing Mice (LU99 tumors; [5]) [mm^3]	Average Tumor Volumes of LU99 Tumor Bearing Mice (LU99 tumors; [6]) [mm^3]	Average Tumor Volumes of LU99 Tumor Bearing Mice (LU99 tumors; [7]) [mm^3]	also measured
C=C(F)C(=O)N1CCN(c2nc(OC[C@@H]3CCCN3C)nc3c2CCN(c2cccc4cccc(Cl)c24)C3)C[C@@H]1CC#N [Compound 478]	52	145.1243	201.0648	253.1608	365.7683	394.367	486.729	534.3942	91	213.447	229.5648	285.0973	326.5344	319.1401	378.2042	228.8452	282.5161	219.8962	252.5981	416.0955	tumor growth inhibition (LU99 tumors; LU99 tumors, Day 18, Compound 478 30 mg/kg p.o. daily): 81%; Average Tumor Volumes of LU99 Tumor Bearing Mice (LU99 tumors; [8]): 495.1032 mm^3; tumor growth regression (H2122 tumors [2]; H2122 tumors, day not given, Compound 478 100 mg/kg p.o. daily): 12%; Average Tumor Volumes of H2122 Tumor Bearing Mice (H2122 tumors [2]; Study Day 1, p.o. daily): 315 mm^3; Average Tumor Volumes of H2122 Tumor Bearing Mice (H2122 tumors [2]; Study Day 7, p.o. daily): 233 mm^3; Average Tumor Volumes of H2122 Tumor Bearing Mice (H2122 tumors [2]; Study Day 21, p.o. daily): 270 mm^3; Average Tumor Volumes of H2122 Tumor Bearing Mice (H2122 tumors [2]; Study Day 24, p.o. daily): 254 mm^3; Average Tumor Volumes of H2122 Tumor Bearing Mice (H2122 tumors [2]; Study Day 32, p.o. daily): 287 mm^3; Average Tumor Volumes of H2122 Tumor Bearing Mice (H2122 tumors [2]; Study Day 35, p.o. daily): 305 mm^3; Average Tumor Volumes of H2122 Tumor Bearing Mice (H2122 tumors [2]; Study Day 38, p.o. daily): 324 mm^3; Average Tumor Volumes of H2122 Tumor Bearing Mice (H2122 tumors [2]; Study Day 42, p.o. daily): 353 mm^3; Average Tumor Volumes of H2122 Tumor Bearing Mice (H2122 tumors [2]; Study Day 45, p.o. daily): 378 mm^3; Average Tumor Volumes of H2122 Tumor Bearing Mice (H2122 tumors [2]; Study Day 49, p.o. daily): 337 mm^3; Average Tumor Volumes of H2122 Tumor Bearing Mice (H2122 tumors [2]; Study Day 56, p.o. daily, dosing stopped on day 56): 371 mm^3; Average Tumor Volumes of H2122 Tumor Bearing Mice (H2122 tumors [2]; Study Day 63, after dosing stopped on day 56): 542 mm^3; Average Tumor Volumes of H2122 Tumor Bearing Mice (H2122 tumors [2]; Study Day 70, after dosing stopped on day 56): 802 mm^3; Average Tumor Volumes of H2122 Tumor Bearing Mice (H2122 tumors [2]; Study Day 77, after dosing stopped on day 56): 1073 mm^3; Average Tumor Volumes of H2122 Tumor Bearing Mice (H2122 tumors [2]; Study Day 85, after dosing stopped on day 56): 1294 mm^3
CC(=O)Nc1cccc(-n2c(=O)n(C3CC3)c(=O)c3c(Nc4ccc(I)cc4F)n(C)c(=O)c(C)c32)c1 [Trametinib, N-(3-(3-cyclopropyl-5-((2-fluoro-4-iodophenyl)amino)-6,8-dimethyl-2,4,7-trioxo-3,4,6,7-tetrahydropyrido[4,3-d]pyrimidin-1 (2H)-yl)phenyl) acetamide, reference compound]																					tumor growth inhibition (H2122 tumors [2]; H2122 tumors, at Day 32, trametinib 1 mg/kg p.o. daily): 60%; Average Tumor Volumes of H2122 Tumor Bearing Mice (H2122 tumors [2]; Study Day 1, p.o. daily): 301 mm^3; Average Tumor Volumes of H2122 Tumor Bearing Mice (H2122 tumors [2]; Study Day 3, p.o. daily): 385 mm^3; Average Tumor Volumes of H2122 Tumor Bearing Mice (H2122 tumors [2]; Study Day 7, p.o. daily): 447 mm^3; Average Tumor Volumes of H2122 Tumor Bearing Mice (H2122 tumors [2]; Study Day 10, p.o. daily): 462 mm^3; Average Tumor Volumes of H2122 Tumor Bearing Mice (H2122 tumors [2]; Study Day 15, p.o. daily): 534 mm^3; Average Tumor Volumes of H2122 Tumor Bearing Mice (H2122 tumors [2]; Study Day 17, p.o. daily): 582 mm^3; Average Tumor Volumes of H2122 Tumor Bearing Mice (H2122 tumors [2]; Study Day 21, p.o. daily): 667 mm^3; Average Tumor Volumes of H2122 Tumor Bearing Mice (H2122 tumors [2]; Study Day 24, p.o. daily): 778 mm^3; Average Tumor Volumes of H2122 Tumor Bearing Mice (H2122 tumors [2]; Study Day 28, p.o. daily): 673 mm^3; Average Tumor Volumes of H2122 Tumor Bearing Mice (H2122 tumors [2]; Study Day 32, p.o. daily): 816 mm^3
CNS(=O)(=O)Nc1nccc(Cc2c(C)c3ccc(Oc4ncccn4)cc3oc2=O)c1F [RO5126766, 3-[[3-fluoro-2-(methylsulfamoylamino)pyridin-4-yl]methyl]-4-methyl-7-pyrimidin-2-yloxychromen-2-one, reference compound]	51	249.5609	280.2067	299.7596	395.0633	458.1809	469.133	480.1852	59	212.4101	327.3898	463.4062	474.4923	504.5922	576.573	232.1134	247.33	158.14	126.8378	181.1358	Average Tumor Volumes of H2122 Tumor Bearing Mice (H2122 tumors [1]; Study Day 21): 772.6155 mm^3; tumor regression (LU99 tumors; LU99 tumors, at Day 18, RO5126766 0.3 mg/kg, Compound 478 30 mg/kg p.o. daily): 12%; Average Tumor Volumes of LU99 Tumor Bearing Mice (LU99 tumors; [8]): 200.6461 mm^3
